Measurements: patent US8889592B2, “Insecticidal and/or herbicidal composition having improved activity based on spiroheterocyclically substituted tetramic acid derivatives” (Bayer CropScience AG, priority 2010, dated 2014)

Legend:
Myzus persicae = Myzus persicae test (activity boost through ammonium salts and penetrants); type: in vivo, green peach aphid (Myzus persicae); conditions: for Kill (%) after 6 d +AS + RME per 1000 ppm: 1000 ppm each; for Kill (%) after 6 d: no additive, bell pepper plants, spray
Method: (§1) Solvent: 7 parts by weight of dimethylformamide
(§2) Emulsifier: 2 parts by weight of alkylaryl polyglycol ether
(§3) To produce a suitable preparation of active compound, 1 part by weight of active compound is mixed with the stated amounts of solvent and emulsifier, and the concentrate is diluted with water to the desired concentration. For application with ammonium salts or phosphonium salts and penetration promoters (rapeseed oil methyl ester 500 EW) these are in each case added in a concentration of 1000 ppm to the spray liquor.
Bell pepper plants (Capsicum annuum) heavily infested by the green peach aphid (Myzus persicae) are sprayed to runoff point with the preparation of active compound at the desired concentration.
After the desired period of time, the kill in % is determined. 100% means that all animals have been killed; 0% means that none of the animals have been killed.

Aphis gossypii = Aphis gossypii test; type: in vivo, cotton aphid (Aphis gossypii); conditions: for Kill (%) after 6 d +AS + RME per 1000 ppm: 1000 ppm each; for Kill (%) after 6 d: no additive, cotton plants, spray
Method: as §1, §2
as §3, with “diluted with emulsifier-containing water to” for “diluted with water to”, “1000 ppm of a.i. to the” for “1000 ppm to the”
Cotton plants (Gossypium hirsutum) which are heavily infested by the cotton aphid (Aphis gossypii) are sprayed to runoff point with the preparation of active compound at the desired concentration.
After the desired period of time, the kill in % is determined. 100% means that all aphids have been killed; 0% means that none of the aphids have been killed.

[1] = Penetration through enzymatically isolated apple leaf cuticles (35° C., 60% rh); type: in vitro ADME, apple trees of the cultivar Golden Delicious; conditions: 0.2 g/l; for Penetration after 48 h/% EC: 500 ppm in DMF/emulsifier W 7:1 (w/w), no additive; for Penetration after 48 h/% EC + AS (0.7 g/l): with ammonium sulphate; for Penetration after 48 h/% EC + RME (1 g/l): with rapeseed oil methyl ester; for Penetration after 48 h/% EC + RME (1 g/l) + AS (0.7 g/l): with rapeseed oil methyl ester and ammonium sulphate
Method: (§4) In this test, the penetration of active compounds through enzymatically isolated cuticles of apple tree leaves is measured.
(§5) Use is made of leaves which, when fully developed, are cut from apple trees of the cultivar Golden Delicious. The cuticles are isolated by • initially filling leaf discs punched out and stained with dye on the underside by vacuum infiltration with a pectinase solution (0.2 to 2% strength) buffered to a pH between 3 and 4, • then adding sodium azide and • allowing the leaf discs treated in this manner to stand until the original leaf structure has dissolved and the non-cellular cuticles have detached.
(§6) Only the cuticles, free from hairs and stoma, of the upper sides of the leaves are then used. They are washed repeatedly alternating with water and a buffer solution of pH 7. The clean cuticles obtained are then mounted on Teflon plates and smoothed and dried with a gentle stream of air.
(§7) In the next step, the cuticle membranes obtained in this manner are placed into stainless steel diffusion cells (=transport chambers) for membrane transport studies. To this end, the cuticles are placed with a pincette into the centre of the edges, coated with silicone fat, of the diffusion cells and closed with a ring, which is also treated with fat. The arrangement is chosen such that the morphological outside of the cuticles is facing outwards, i.e. exposed to air, whereas the original inside is facing the interior of the diffusion cell.
(§8) The diffusion cells are filled with a 30% strength ethylene glycol/water solution. To determine the penetration, in each case 10 μl of the spray liquor of the composition below are applied to the outside of the cuticles. The spray liquor is prepared using local tap water of medium hardness.
(§9) After the application of the spray liquors, the water is allowed to evaporate and the chambers are inverted and placed into thermostatic tubs in which temperature and atmospheric humidity over the cuticles can be adjusted using a gentle stream of air onto the cuticles with the spray coating (35° C., 60% rh). At regular intervals, an autosampler takes aliquots and the active compound content is determined by HPLC.
(§10) The stated numbers are average values of 8 to 10 measurements. It is clearly evident that even the ammonium salts on their own improve the penetration markedly, and that, together with RME, a superadditive (synergistic) effect is present.

ALOMY = assay: Herbicidal post-emergence action; type: in vivo, Blackgrass (not resistant); conditions: 6.25 g of a.i./ha, 28 days after application
Method: (§11) Seeds of monocotyledonous weed plants are placed in sandy loam in wood fibre pots, covered with soil and cultivated in a greenhouse under good growth conditions. 3-4 weeks after sowing, the test plants are treated at the two- to three-leaf stage. The test compound, formulated as a wettable powder (WP), is then, at various dosages with a water application rate of 300 l/ha (converted), with the stated adjuvants added, sprayed onto the green parts of the plants. After the test plants have been kept in the greenhouse under optimum growth conditions for about 4 weeks, the effect of the preparations is rated visually in comparison to untreated controls (herbicidal effect in percent: 100% effect=the plants have died, 0% effect=like control plants).

LOLRI = assay: Herbicidal post-emergence action; type: in vivo, Annual Ryegrass (resistant); conditions: 6.25 g of a.i./ha, 28 days after application
Method: as §11

LOLMU = assay: Herbicidal post-emergence action; type: in vivo, Italian Ryegrass; conditions: 6.25 g of a.i./ha, 28 days after application
Method: as §11

ALOMY (Peldon) = assay: Herbicidal post-emergence action; type: in vivo, Blackgrass (resistant); conditions: 6.25 g of a.i./ha, 28 days after application
Method: as §11

[2] = Penetration through enzymatically isolated apple leaf cuticles (20° C., 60% rh); type: in vitro ADME, apple trees of the cultivar Golden Delicious; conditions: 0.1 g/l
Method: as §4, §5, §6, §7, §8
as §9, with “(20°” for “(35°”
as §10

[3] = 20 ppm active compound + ammonium sulphate 1000 ppm
[4] = 20 ppm active compound + ammonium sulphate and rapeseed oil methyl ester
[5] = 20 ppm active compound + rapeseed oil methyl ester 1000 ppm
[6] = with ammonium sulphate (2 kg/ha)
[7] = with ammonium sulphate (2 kg/ha) and Genapol LRO (1 l/ha)
[8] = 4 ppm active compound + ammonium sulphate 1000 ppm
[9] = 4 ppm active compound + ammonium sulphate and rapeseed oil methyl ester
[10] = 4 ppm active compound + rapeseed oil methyl ester 1000 ppm

CCOC(=O)OC1=C(c2cc(C)ccc2C)C(=O)NC12CCN(OC)CC2 [I-c-1]
Kill (%) after 6 d +AS 1000 ppm (Myzus persicae; [3]): 0%
Kill (%) after 6 d +AS + RME per 1000 ppm (Myzus persicae; [4]): 98%
Kill (%) after 6 d +RME 1000 ppm (Myzus persicae; [5]): 20%
Kill (%) after 6 d (Myzus persicae; 20 ppm active compound): 0%
Kill (%) after 6 d +AS 1000 ppm (Aphis gossypii; [3]): 0%
Kill (%) after 6 d +AS + RME per 1000 ppm (Aphis gossypii; [4]): 90%
Kill (%) after 6 d +RME 1000 ppm (Aphis gossypii; [5]): 80%
Kill (%) after 6 d (Aphis gossypii; 20 ppm active compound): 0%

CCON1CCC2(CC1)NC(=O)C(c1c(C)cc(C)cc1C)=C2O [Example I-a-4]
Penetration after 48 h/% EC [1]: 0%
Penetration after 48 h/% EC + AS (0.7 g/l) [1]: 3%
Penetration after 48 h/% EC + RME (1 g/l) [1]: 6%
Penetration after 48 h/% EC + RME (1 g/l) + AS (0.7 g/l) [1]: 17%

CCc1cc(C)cc(CC)c1C1=C(O)C2(CCN(OC)CC2)NC1=O [Example I-a-3]
herbicidal effect, a.i. + GE (ALOMY; with Genapol LRO (1 l/ha)): 70%
herbicidal effect, a.i. + AS (ALOMY; [6]): 0%
herbicidal effect, a.i. + AS + GE (ALOMY; [7]): 90%
herbicidal effect, a.i. (ALOMY; post-emergence, no adjuvant): 0%
herbicidal effect, a.i. + GE (LOLRI; with Genapol LRO (1 l/ha)): 20%
herbicidal effect, a.i. + AS (LOLRI; [6]): 0%
herbicidal effect, a.i. + AS + GE (LOLRI; [7]): 60%
herbicidal effect, a.i. (LOLRI; post-emergence, no adjuvant): 0%
herbicidal effect, a.i. + GE (LOLMU; with Genapol LRO (1 l/ha)): 50%
herbicidal effect, a.i. + AS (LOLMU; [6]): 40%
herbicidal effect, a.i. + AS + GE (LOLMU; [7]): 80%
herbicidal effect, a.i. (LOLMU; post-emergence, no adjuvant): 20%
Penetration after 48 h/% EC [1]: 1%
Penetration after 48 h/% EC + AS (0.7 g/l) [1]: 9%
Penetration after 48 h/% EC + RME (1 g/l) [1]: 9%
Penetration after 48 h/% EC + RME (1 g/l) + AS (0.7 g/l) [1]: 33%
herbicidal effect, a.i. + GE (ALOMY (Peldon); with Genapol LRO (1 l/ha)): 20%
herbicidal effect, a.i. + AS (ALOMY (Peldon); [6]): 0%
herbicidal effect, a.i. + AS + GE (ALOMY (Peldon); [7]): 60%
herbicidal effect, a.i. (ALOMY (Peldon); post-emergence, no adjuvant): 0%

CON1CCC2(CC1)NC(=O)C(c1cc(C)ccc1C)=C2O [Example I-a-1]
Kill (%) after 6 d +AS 1000 ppm (Myzus persicae; [3]): 0%
Kill (%) after 6 d +AS + RME per 1000 ppm (Myzus persicae; [4]): 60%
Kill (%) after 6 d +RME 1000 ppm (Myzus persicae; [5]): 0%
Kill (%) after 6 d (Myzus persicae; 20 ppm active compound): 0%
Penetration after 24 h/% EC ([2]; 500 ppm in DMF/emulsifier W 7:1 (w/w), no additive): 0.7%
Penetration after 24 h/% EC + AS (1 g/D) ([2]; with ammonium sulphate): 17%
Penetration after 24 h/% EC + DAHP (1 g/l) ([2]; with diammonium hydrogenphosphate): 15%
Penetration after 24 h/% EC + RME (1 g/l) ([2]; with rapeseed oil methyl ester): 1.7%
Penetration after 24 h/% EC + RME (1 g/l) + AS (1 g/l) ([2]; with rapeseed oil methyl ester and ammonium sulphate): 21%
Penetration after 24 h/% EC + RME (1 g/l) + DAHP (1 g/l) ([2]; with rapeseed oil methyl ester and diammonium hydrogenphosphate): 28%

CON1CCC2(CC1)NC(=O)C(c1c(C)cc(C)cc1C)=C2O [I-a-2]
Kill (%) after 6 d +AS 1000 ppm (Myzus persicae; 0.8 ppm active compound + ammonium sulphate 1000 ppm): 0%
Kill (%) after 6 d +AS + RME per 1000 ppm (Myzus persicae; 0.8 ppm active compound + ammonium sulphate and rapeseed oil methyl ester): 90%
Kill (%) after 6 d +RME 1000 ppm (Myzus persicae; 0.8 ppm active compound + rapeseed oil methyl ester 1000 ppm): 0%
Kill (%) after 6 d (Myzus persicae; 0.8 ppm active compound): 0%
Kill (%) after 6 d +AS 1000 ppm (Myzus persicae; [8]): 55%
Kill (%) after 6 d +AS + RME per 1000 ppm (Myzus persicae; [9]): 95%
Kill (%) after 6 d +RME 1000 ppm (Myzus persicae; [10]): 60%
Kill (%) after 6 d (Myzus persicae; 4 ppm active compound): 0%
Kill (%) after 6 d +AS 1000 ppm (Aphis gossypii; [8]): 0%
Kill (%) after 6 d +AS + RME per 1000 ppm (Aphis gossypii; [9]): 90%
Kill (%) after 6 d +RME 1000 ppm (Aphis gossypii; [10]): 40%
Kill (%) after 6 d (Aphis gossypii; 4 ppm active compound): 0%
Kill (%) after 6 d +AS 1000 ppm (Aphis gossypii; [3]): 85%
Kill (%) after 6 d +AS + RME per 1000 ppm (Aphis gossypii; [4]): 95%
Kill (%) after 6 d +RME 1000 ppm (Aphis gossypii; [5]): 95%
Kill (%) after 6 d (Aphis gossypii; 20 ppm active compound): 0%
